Results taken from patent US11510902B2, “Method for preventing or treating non-alcoholic fatty liver disease by antrodins” (Simpson Biotech Co., Ltd., priority 2019, dated 2022).

What was measured:
Hep G2 cells [1] = experiment: Cell viability test (alamar blue); assay type: cell-based, Human; details: concentration less than 100 μg/ml, 72 hrs
Experimental: (§1) Human hepatoma cell line Hep G2 was cultured in Dulbecco's modified Eagle's medium high glucose (DMEM-HG) containing 10% fetal bovine serum, 100 U/ml penicillin and […] streptomycin at 37° C. under 5% CO2 in an incubator.
Hepasim® was a mixture from Antrodia cinnamomea mycelia, which was prepared from water or organic solvent extract of Antrodia cinnamomea mycelia. The extract of Antrodia cinnamomea mycelia comprised Antrodin B-E. 5×10^3 Hep G2 cells were seeded in a 96-well plate for 24 hrs, and then incubated with different concentrations of Hepasim®, Antrodin B, Antrodin C and Antrodin D for 72 hrs. After treatment, cells were incubated with alamar blue (10%, w/v) for 3 hrs, and then was read at […]. Cell viability was calculated by [(OD570−OD600)test/(OD570−OD600)control]×100.

Hep G2 cells [2] = experiment: Free fatty acids (FFA)-induced lipid accumulation and Oil Red determination; assay type: cell-based, Human; details: Oil Red; for attenuated lipid accumulation in the cells: vs control group; for cellular lipid accumulation as compared with the control group: FIG. 2
Experimental: as §1
1×10^5 Hep G2 cells were seeded in a 96-well plate and incubated with serum-free cellular medium containing 1% BSA for 24 hrs. To induce lipid accumulation, the above cells were seeded in a mixture of 0.33 mM palmitic acid and 0.66 mM oleic acid for 24 hrs, which were dissolved in serum-free medium with or without Antrodin. After lipid accumulation and Antrodin treatment, cells were washed with PBS and then fixed by 4% paraformaldehyde for 15 mins at room temperature. The fixed cells were washed with PBS for 5 mins, and then rinsed with 60% isopropanol twice; followed by incubation with 1 ml Oil Red kit for 10 mins. For quantitative analysis of cellular lipids, dye in the cellular lipids were extracted with 0.5 ml of isopropanol, and then measured at 490 nm.

[3] = test system: C57BL/6J (B6) mice on high fat diet; experiment: High fat diet mice, treating process (20 weeks, dosing 11th to 20th week); assay type: in vivo; parameters: Malondiadehyde in liver: unit not given here; details: for body weight: 11th to 20th week, high fat diet 20 weeks; for reduction of body weight increasing rate as compared with the high fat diet group: at the end of 20 weeks; for ALT / AST / TC / TG / attenuated the increased ALT as compared with the high fat diet group / attenuated the increased AST as compared with the high fat diet group / attenuated the increased TC as compared with the high fat diet group / attenuated the increased TG as compared with the high fat diet group: serum; for ALT / AST / TC / TG / MDA level increasing rate in liver / Malondiadehyde in liver / Plasma insulin / blood glucose / liver hypertrophy / liver weight / plasma insulin level increasing rate was reduced by / Plasma insulin increasing rate / body weight increasing rate / lipid droplets in the liver, hematoxylin-eosin staining of liver sections / MDA level increasing rate was reduced by / liver appearance: pale color (phenomenon of fatty liver) / attenuated the increased ALT as compared with the high fat diet group / attenuated the increased AST as compared with the high fat diet group / attenuated the increased TC as compared with the high fat diet group / attenuated the increased TG as compared with the high fat diet group / attenuated the increased blood sugar as compared with the high fat diet group: treating process; for Plasma insulin increasing rate / body weight increasing rate: relative to control group; for lipid droplets in the liver, hematoxylin-eosin staining of liver sections: FIG. 5; for MDA level increasing rate was reduced by: liver; for liver appearance: pale color (phenomenon of fatty liver): FIG. 4
Experimental: 2.1 8-week-old male C57BL/6J (B6) mice were used, which were purchased from the National Laboratory Animal Center (Taipei, Taiwan). All animals were maintained at an animal room at a temperature of 23±2° C., and 12 hrs light/12 hrs dark cycle.
According to the “Healthy food of liver health effects assessment” (Taiwan Food and Drug Administration, Taiwan), all 8-week test mice were randomized into a control group, a high fat diet group, and test (high fat diet with different dosage of Hepasim®, Antrodin B or Antrodin C) groups. Each group contained 3-4 mice.
The control group was given 20 weeks of normal diet, and all other groups were given 20 weeks of high fat diet. […] Body weights of the mice in each group were recorded weekly. At the end of 20 weeks, all mice were sacrificed by CO2 overdose. At the time of death of the mouse, blood was collected from the heart of the mouse. To separate the serum, whole blood was centrifuged in a refrigerated centrifuge at 15,700×g at 4° C. for 5 minutes. Livers were removed from the mice, and then rinsed in ice-cold saline. Liver samples were divided for various assays and histological assessment.
Stored liver samples (0.1 g) were homogenized in 1 ml PBS, and then was centrifuged in a refrigerated centrifuge at 15,700×g at 4° C. for 5 minutes to remove pellets. The levels of aspartate aminotransferase (AST), alanine aminotransferase (ALT), total cholesterol (TC) and total triglyceride (TG) of the serum and the liver were measured by corresponding detection kits (Randox). Blood sugar in whole blood was detected by blood sugar machine (Roche). Plasma insulin was detected by Insulin mouse ELISA kit (Invitrogen). Malondialdehyde (MDA) level in liver was measured by using Lipid Peroxidation Assay Kit (Colorimetric/Fluorometric) (abcam, #ab118977). Liver samples were divided for various assays and histological assessment.
The livers were removed from the mice, and then fixed in 10% neural formalin. Liver samples were dehydrated by placing in ethanol at different concentrations (30, 50, 70, 95, 99.5%) and xylene. Finally, liver samples were embedded in paraffin section. For hematoxylin-eosin staining, the liver tissue sections were placed in xylene for 30 minutes for dewaxing, and then sequentially placed in 99.5% ethanol for 10 minutes, 90% ethanol for 5 minutes, 70% ethanol for 1 minute, 50% ethanol for 1 minute and 30% ethanol for 1 minutes for rehydration, and then soaked in distilled water for 10 minutes. To stained nuclei, the samples were soaked in hematoxylin solution for 4 minutes, and then soaked in distilled water for several minutes, followed by soaking in eosin solution for 2 minutes to stain cytoplasm, and then washed in distilled water for 10 minutes. Finally, samples were sequentially placed in 90% ethanol for 2 minutes, 99.5% ethanol for 2 minutes and xylene for 20 minutes, and then mounted by mounting medium.
All results were expressed as mean±SD. Significant differences were analyzed with two-tailed Student's t-test. P<0.05 represents the statistical difference between two groups.

[4] = "10%" Antrodin (so in the source)
[5] = "30%" Antrodin (so in the source)
[6] = treated with "10%" Antrodin (so in the source)
[7] = treated with "30%" Antrodin (so in the source)

CC(C)=CCOc1ccc([C@H]2C(=O)N(O)C(=O)[C@@H]2CC(C)C)cc1 (relative stereo) [Antrodin D, 3R*,4S*-1-hydroxy-3-isobutyl-4-[4-(3-methyl-2-butenyloxy)phenyl]pyrrolidine-2,5-dione]
cytotoxicity to Hep G2 cells (Hep G2 cells [1]): no cytotoxicity
attenuated lipid accumulation in the cells (Hep G2 cells [2]; 100 μg/ml): 18.6%
cellular lipid accumulation as compared with the control group (Hep G2 cells [2]): significantly reduced

CC(C)=CCOc1ccc(C2=C(CC(C)C)C(=O)NC2=O)cc1 [Antrodin B, 3-isobutyl-4-[4-(3-methyl-2-butenyloxy)phenyl]-1H-pyrrol-2,5-dione]
cytotoxicity to Hep G2 cells (Hep G2 cells [1]): no cytotoxicity
body weight ([3]; 10 mg/Kg oral gavage every day): 37.14 ± 5.18 g
reduction of body weight increasing rate as compared with the high fat diet group ([3]; 10 mg/Kg): 14%
ALT ([3]; 10 mg/Kg): 29.36 ± 6.17 U/l
AST ([3]; 10 mg/Kg): 44.39 ± 7.06 U/l
TC ([3]; 10 mg/Kg): 266.61 ± 25.99 mg/dL
TG ([3]; 10 mg/Kg): 189.57 ± 9.35 mg/dL
MDA level increasing rate in liver ([3]; 10 mg/Kg): 202.8%
Malondiadehyde in liver ([3]; 10 mg/Kg): 2.15 ± 0.58
Plasma insulin ([3]; 10 mg/Kg): 0.99 ± 0.41 ng/mL
blood glucose ([3]; 10 mg/Kg): 367.20 ± 34.40 mg/dL
liver hypertrophy ([3]; 10 mg/Kg): significantly inhibited
liver weight ([3]; 10 mg/Kg): 1.39 ± 0.33 g
plasma insulin level increasing rate was reduced by ([3]; 10 mg/Kg): 223.6%
Plasma insulin increasing rate ([3]; 10 mg/Kg): 80%
body weight increasing rate ([3]; 10 mg/Kg): 21.1%
body weight ([3]; 30 mg/Kg oral gavage every day): 41.82 ± 2.61 g
ALT ([3]; 30 mg/Kg): 29.38 ± 11.45 U/l
AST ([3]; 30 mg/Kg): 53.64 ± 9.99 U/l
TC ([3]; 30 mg/Kg): 287.73 ± 48.26 mg/dL
TG ([3]; 30 mg/Kg): 187.77 ± 6.53 mg/dL
MDA level increasing rate in liver ([3]; 30 mg/Kg): 97.2%
Malondiadehyde in liver ([3]; 30 mg/Kg): 1.4 ± 0.56
Plasma insulin ([3]; 30 mg/Kg): 1.84 ± 0.93 ng/mL
blood glucose ([3]; 30 mg/Kg): 389.00 ± 41.63 mg/dL
liver weight ([3]; 30 mg/Kg): 1.5 ± 0.25 g
plasma insulin level increasing rate was reduced by ([3]; 30 mg/Kg): 69.1%
Plasma insulin increasing rate ([3]; 30 mg/Kg): 234.5%
body weight increasing rate ([3]; 30 mg/Kg): 36.3%
lipid droplets in the liver, hematoxylin-eosin staining of liver sections [3, 4]: significantly attenuated
lipid droplets in the liver, hematoxylin-eosin staining of liver sections [3, 5]: significantly attenuated
MDA level increasing rate was reduced by [3, 6]: 24.8%
MDA level increasing rate was reduced by [3, 7]: 129.6%
liver appearance: pale color (phenomenon of fatty liver) [3]: not observed
attenuated lipid accumulation in the cells (Hep G2 cells [2]; 10 μg/ml): 12.8%
attenuated lipid accumulation in the cells (Hep G2 cells [2]; 100 μg/ml): 9.3%
cellular lipid accumulation as compared with the control group (Hep G2 cells [2]): significantly reduced

CC(C)=CCOc1ccc(C2=C(CC(C)C)C(=O)N(O)C2=O)cc1 [Antrodin C, 3-isobutyl-4-[4-(3-methyl-2-butenyloxy)phenyl]-1H-pyrrol-1-ol-2,5-dione]
cytotoxicity to Hep G2 cells (Hep G2 cells [1]): no cytotoxicity
body weight ([3]; 10 mg/Kg oral gavage every day): 40.06 ± 4.74 g
reduction of body weight increasing rate as compared with the high fat diet group ([3]; 10 mg/Kg): 4.5%
ALT ([3]; 10 mg/Kg): 22.99 ± 5.15 U/l
AST ([3]; 10 mg/Kg): 38.17 ± 5.53 U/l
TC ([3]; 10 mg/Kg): 189.36 ± 58.12 mg/dL
TG ([3]; 10 mg/Kg): 179.28 ± 15.54 mg/dL
attenuated the increased ALT as compared with the high fat diet group ([3]; 10 mg/Kg): ~12.3%
attenuated the increased AST as compared with the high fat diet group ([3]; 10 mg/Kg): ~39.35%
attenuated the increased TC as compared with the high fat diet group ([3]; 10 mg/Kg): ~66.83%
attenuated the increased TG as compared with the high fat diet group ([3]; 10 mg/Kg): ~11.57%
MDA level increasing rate in liver ([3]; 10 mg/Kg): 140.8%
Malondiadehyde in liver ([3]; 10 mg/Kg): 1.71 ± 0.59
Plasma insulin ([3]; 10 mg/Kg): 1.77 ± 0.85 ng/mL
attenuated the increased blood sugar as compared with the high fat diet group ([3]; 10 mg/Kg): about 34.78%
blood glucose ([3]; 10 mg/Kg): 351.80 ± 85.00 mg/dL
liver hypertrophy ([3]; 10 mg/Kg): significantly inhibited
liver weight ([3]; 10 mg/Kg): 1.06 ± 0.25 g
plasma insulin level increasing rate was reduced by ([3]; 10 mg/Kg): 81.8%
Plasma insulin increasing rate ([3]; 10 mg/Kg): 221.8%
body weight increasing rate ([3]; 10 mg/Kg): 30.6%
body weight ([3]; 30 mg/Kg oral gavage every day): 37.50 ± 4.80 g
reduction of body weight increasing rate as compared with the high fat diet group ([3]; 30 mg/Kg): 12.9%
ALT ([3]; 30 mg/Kg): 17.61 ± 3.90 U/l
AST ([3]; 30 mg/Kg): 32.33 ± 2.85 U/l
TC ([3]; 30 mg/Kg): 171.86 ± 40.58 mg/dL
TG ([3]; 30 mg/Kg): 170.63 ± 13.22 mg/dL
attenuated the increased ALT as compared with the high fat diet group ([3]; 30 mg/Kg): ~48.96%
attenuated the increased AST as compared with the high fat diet group ([3]; 30 mg/Kg): ~74.17%
attenuated the increased TC as compared with the high fat diet group ([3]; 30 mg/Kg): ~86.26%
attenuated the increased TG as compared with the high fat diet group ([3]; 30 mg/Kg): ~21.96%
MDA level increasing rate in liver ([3]; 30 mg/Kg): 90.1%
Malondiadehyde in liver ([3]; 30 mg/Kg): 1.35 ± 0.57
Plasma insulin ([3]; 30 mg/Kg): 1.25 ± 0.71 ng/mL
attenuated the increased blood sugar as compared with the high fat diet group ([3]; 30 mg/Kg): about 79.48%
blood glucose ([3]; 30 mg/Kg): 298.60 ± 38.93 mg/dL
liver hypertrophy ([3]; 30 mg/Kg): significantly inhibited
liver weight ([3]; 30 mg/Kg): 1.05 ± 0.24 g
plasma insulin level increasing rate was reduced by ([3]; 30 mg/Kg): 176.3%
Plasma insulin increasing rate ([3]; 30 mg/Kg): 127.3%
body weight increasing rate ([3]; 30 mg/Kg): 22.2%
lipid droplets in the liver, hematoxylin-eosin staining of liver sections [3, 4]: significantly attenuated
lipid droplets in the liver, hematoxylin-eosin staining of liver sections [3, 5]: significantly attenuated
MDA level increasing rate was reduced by [3, 6]: 86%
MDA level increasing rate was reduced by [3, 7]: 136.7%
liver appearance: pale color (phenomenon of fatty liver) [3]: not observed
attenuated lipid accumulation in the cells (Hep G2 cells [2]; 10 μg/ml): 20.6%
attenuated lipid accumulation in the cells (Hep G2 cells [2]; 100 μg/ml): 24.1%
cellular lipid accumulation as compared with the control group (Hep G2 cells [2]): significantly reduced
